Data taken from ChEMBL document CHEMBL4002541 (Medchemcomm, 2014).
Activity calls are given as the source filed them. The rule behind the calls is not given here.

These compounds were tested against T1, Melatonin receptor type 1B (Homo sapiens, UniProt P49286) (assay: Displacement of 2-[125I]Iodomelatonin from human MT2 receptor expressed in CHO cell membranes after 120 mins).
T1 sequence (P49286 whole entry): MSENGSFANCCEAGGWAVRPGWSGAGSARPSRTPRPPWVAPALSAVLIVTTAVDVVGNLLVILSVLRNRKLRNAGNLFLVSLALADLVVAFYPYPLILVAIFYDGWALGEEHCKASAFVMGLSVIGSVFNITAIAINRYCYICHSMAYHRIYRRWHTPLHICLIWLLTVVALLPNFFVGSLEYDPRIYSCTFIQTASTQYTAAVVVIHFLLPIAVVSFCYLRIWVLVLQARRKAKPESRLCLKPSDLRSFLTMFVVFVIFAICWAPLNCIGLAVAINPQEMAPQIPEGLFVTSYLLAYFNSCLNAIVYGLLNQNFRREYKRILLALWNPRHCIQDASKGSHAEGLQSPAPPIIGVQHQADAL
For CCC(=O)NC[C@@H](CO)c1cccc2ccc(OC)cc12, the Ki was 5.5 nM.
Compound COc1ccc2cccc(C(CO)CNC(=O)C(F)F)c2c1 (stereo not drawn) has a Ki of 0.347 nM.
For CCC(=O)NCC(CO)c1cccc2ccc(OC)cc12 (racemic), the Ki was 2.95 nM.
Work on CCC(=O)NC[C@H](CO)c1cccc2ccc(OC)cc12 yielded a Ki of 0.316 nM.
For COc1ccc2cccc([C@@H](CO)CNC(=O)CF)c2c1, the Ki was 0.977 nM.
For COc1ccc2cccc(C(CO)CNC(C)=O)c2c1 (stereo not drawn), the Ki was 13.8 nM.
COc1ccc2cccc([C@H](CO)CNC(=O)CF)c2c1 gave a Ki of 52.5 nM.
In the case of COc1ccc2cccc(C(CO)CNC(=O)CF)c2c1 (racemic), the Ki is reported as 0.537 nM.

Each compound was assayed on Mus musculus (assay: Antidepressant activity in OF1 mouse assessed as reduction in immobility time at 0.1 to 10 mg/kg administered 40 mins prior to testing measured for 6 mins by tail suspension test).
Format: functional, organism-based
CCC(=O)NC[C@@H](CO)c1cccc2ccc(OC)cc12 was tested, and the Activity was “inactive”.
COc1ccc2cccc([C@@H](CO)CNC(=O)CF)c2c1 was tested, and the Activity was “Active”.
For COc1ccc2cccc([C@H](CO)CNC(=O)CF)c2c1, the Activity was “inactive”.

These compounds were tested against T2, 5-hydroxytryptamine receptor 2C (Homo sapiens, UniProt P28335) (assay: Displacement of [3H]mesulergine from human 5HT2C (VSV) receptor expressed in CHO cell membranes after 60 mins by scintillation counting method).
T2 sequence (P28335 whole entry): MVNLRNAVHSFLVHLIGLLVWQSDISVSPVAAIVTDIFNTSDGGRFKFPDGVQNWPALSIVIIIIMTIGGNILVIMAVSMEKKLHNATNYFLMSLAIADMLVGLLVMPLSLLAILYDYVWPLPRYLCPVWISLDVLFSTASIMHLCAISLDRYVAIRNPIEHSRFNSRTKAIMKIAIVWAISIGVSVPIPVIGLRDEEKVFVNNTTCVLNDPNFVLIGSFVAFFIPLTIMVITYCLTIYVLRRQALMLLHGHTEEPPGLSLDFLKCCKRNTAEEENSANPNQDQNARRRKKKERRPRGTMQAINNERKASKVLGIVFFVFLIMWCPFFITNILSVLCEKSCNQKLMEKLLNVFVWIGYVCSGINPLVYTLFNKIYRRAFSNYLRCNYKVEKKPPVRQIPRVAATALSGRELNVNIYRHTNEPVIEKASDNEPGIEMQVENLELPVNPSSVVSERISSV
With CCC(=O)NC[C@@H](CO)c1cccc2ccc(OC)cc12 the Ki was over 10000 nM.
COc1ccc2cccc(C(CO)CNC(=O)C(F)F)c2c1 (stereo not drawn) showed a Ki of 692 nM.
Compound CCC(=O)NCC(CO)c1cccc2ccc(OC)cc12 (racemic) has a Ki of 708 nM.
For CCC(=O)NC[C@H](CO)c1cccc2ccc(OC)cc12, the Ki was 417 nM.
COc1ccc2cccc([C@@H](CO)CNC(=O)CF)c2c1 was tested, and the Ki was 186 nM.
Work on COc1ccc2cccc(C(CO)CNC(C)=O)c2c1 (stereo not drawn) yielded a Ki of 229 nM.
COc1ccc2cccc([C@H](CO)CNC(=O)CF)c2c1 showed a Ki of over 10000 nM.
COc1ccc2cccc(C(CO)CNC(=O)CF)c2c1 (racemic) gave a Ki of 166 nM.

Organism: Homo sapiens
Experiment: Selectivity ratio of Ki for human MT1 receptor to Ki for human MT2 receptor
For CCC(=O)NC[C@@H](CO)c1cccc2ccc(OC)cc12, the Ratio Ki was 53.
COc1ccc2cccc([C@H](CO)CNC(=O)CF)c2c1 gave a Ratio Ki of 7.

The compounds below were run against T3, Melatonin receptor type 1B (Homo sapiens) (UniProt P49286) (assay: (§1) Partial agonist activity at human MT2 receptor expressed in CHO cells after 1 hr by [35S]GTPgammaS binding assay).
T3 sequence (whole entry): T1 sequence (P49286 whole entry)
Format: functional, cell-based
CCC(=O)NC[C@H](CO)c1cccc2ccc(OC)cc12 was tested, and the Emax was 107%.
Compound COc1ccc2cccc([C@@H](CO)CNC(=O)CF)c2c1 has an Emax of 99%.

The compounds below were run against T1, Melatonin receptor type 1B (assay: as §1).
Format: functional, cell-based
CCC(=O)NC[C@H](CO)c1cccc2ccc(OC)cc12 gave an EC50 of 1.26 nM.
Work on COc1ccc2cccc([C@@H](CO)CNC(=O)CF)c2c1 yielded an EC50 of 0.794 nM.

Each compound was assayed on Mus musculus (assay: Antidepressant activity in OF1 mouse assessed as reduction in immobility time at 1 to 10 mg/kg administered 40 mins prior to testing measured for 6 mins by tail suspension test).
Format: functional, organism-based
CCC(=O)NC[C@H](CO)c1cccc2ccc(OC)cc12 was tested, and the Activity was “Dose-dependent effect”.

What follows are compounds tested against T4, Melatonin receptor type 1A (Homo sapiens, UniProt P48039) (assay: Displacement of 2-[125I]Iodomelatonin from human MT1 receptor expressed in CHO cell membranes after 120 mins).
T4 sequence (P48039 whole entry): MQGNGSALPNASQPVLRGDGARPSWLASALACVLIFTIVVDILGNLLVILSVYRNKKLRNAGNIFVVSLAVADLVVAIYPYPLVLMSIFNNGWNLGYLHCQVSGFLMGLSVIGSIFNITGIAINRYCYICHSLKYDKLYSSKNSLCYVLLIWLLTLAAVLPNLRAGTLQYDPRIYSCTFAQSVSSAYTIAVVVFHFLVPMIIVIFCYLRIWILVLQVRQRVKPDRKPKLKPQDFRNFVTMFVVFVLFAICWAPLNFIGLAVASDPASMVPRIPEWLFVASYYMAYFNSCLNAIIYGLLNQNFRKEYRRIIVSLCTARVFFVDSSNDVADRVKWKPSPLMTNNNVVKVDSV
In the case of CCC(=O)NC[C@@H](CO)c1cccc2ccc(OC)cc12, the Ki is reported as 182 nM.
For COc1ccc2cccc(C(CO)CNC(=O)C(F)F)c2c1 (stereo not drawn), the Ki was 1.91 nM.
Compound CCC(=O)NCC(CO)c1cccc2ccc(OC)cc12 (racemic) has a Ki of 1.35 nM.
With CCC(=O)NC[C@H](CO)c1cccc2ccc(OC)cc12 the Ki was 3.39 nM.
For COc1ccc2cccc([C@@H](CO)CNC(=O)CF)c2c1, the Ki was 5.89 nM.
COc1ccc2cccc(C(CO)CNC(C)=O)c2c1 (stereo not drawn) showed a Ki of 11 nM.
Compound COc1ccc2cccc([C@H](CO)CNC(=O)CF)c2c1 has a Ki of 347 nM.

Each compound was assayed against T1, Melatonin receptor type 1B (assay: Agonist activity at human MT2 receptor expressed in CHO cells after 1 hr by [35S]GTPgammaS binding assay).
Format: functional, cell-based
CCC(=O)NC[C@@H](CO)c1cccc2ccc(OC)cc12 was tested, and the EC50 was 7.41 nM.
COc1ccc2cccc(C(CO)CNC(=O)C(F)F)c2c1 (stereo not drawn) showed an EC50 of 0.372 nM.
CCC(=O)NCC(CO)c1cccc2ccc(OC)cc12 (racemic) showed an EC50 of 2.75 nM.
Work on COc1ccc2cccc(C(CO)CNC(C)=O)c2c1 (stereo not drawn) yielded an EC50 of 145 nM.
COc1ccc2cccc([C@H](CO)CNC(=O)CF)c2c1 showed an EC50 of 25.1 nM.
With COc1ccc2cccc(C(CO)CNC(=O)CF)c2c1 (racemic) the EC50 was 0.631 nM.

Each compound was assayed against T1, Melatonin receptor type 1B (assay: Binding affinity to MT2 receptor (unknown origin)).
COc1cc2c([C@@H](C)CNC(C)=O)c[nH]c2cc1Cl showed a Ki of 0.0398 nM.

These compounds were tested against T4, Melatonin receptor type 1A (assay: Partial agonist activity at human MT1 receptor expressed in CHO cells after 1 hr by [35S]GTPgammaS binding assay).
Format: functional, cell-based
Work on CCC(=O)NC[C@H](CO)c1cccc2ccc(OC)cc12 yielded an EC50 of 19.5 nM and an Emax of 59%.
With COc1ccc2cccc([C@@H](CO)CNC(=O)CF)c2c1 the EC50 was 79.4 nM and the Emax was 62%.

These compounds were tested against T4, Melatonin receptor type 1A (assay: Binding affinity to MT1 receptor (unknown origin)).
Compound COc1cc2c([C@@H](C)CNC(C)=O)c[nH]c2cc1Cl has a Ki of 0.0794 nM.

Each compound was assayed against T5, 5-hydroxytryptamine receptor 2C (Homo sapiens) (UniProt P28335) (assay: Antagonist activity at human 5HT2C (VSV) receptor expressed in CHO cells assessed as inhibition of 5-HT-induced [3H]inositol phosphate production preincubated for 20 mins followed by 5-HT addition relative to 5-HT).
T5 sequence (whole entry): T2 sequence (P28335 whole entry)
Format: functional, cell-based
In the case of CCC(=O)NC[C@H](CO)c1cccc2ccc(OC)cc12, the Imax is reported as 79%.
In the case of COc1ccc2cccc(CCNC(C)=O)c2c1, the Imax is reported as 98%.
Compound COc1ccc2cccc([C@@H](CO)CNC(=O)CF)c2c1 has an Imax of 97%.

The compounds below were run against T5, 5-hydroxytryptamine receptor 2C (Homo sapiens) (assay: Antagonist activity at human 5HT2C (VSV) receptor expressed in CHO cells assessed as inhibition of 5-HT-induced [3H]inositol phosphate production preincubated for 20 mins followed by 5-HT addition).
Format: functional, cell-based
CCC(=O)NC[C@H](CO)c1cccc2ccc(OC)cc12 gave a pKb of 6.
Work on COc1ccc2cccc([C@@H](CO)CNC(=O)CF)c2c1 yielded a pKb of 6.3.

Each compound was assayed on Mus musculus (assay: Antidepressant activity in OF1 mouse assessed as reduction in immobility time at 64 mg/kg administered 40 mins prior to testing measured for 6 mins by tail suspension test).
Format: functional, organism-based
In the case of CN(C)CCCN1c2ccccc2CCc2ccccc21, the Activity is reported as “Active”.

What follows are compounds tested on Mus musculus (assay: Antidepressant activity in OF1 mouse assessed as reduction in immobility time at 0.1 mg/kg administered 40 mins prior to testing measured for 6 mins by tail suspension test).
Format: functional, organism-based
In the case of CCC(=O)NC[C@H](CO)c1cccc2ccc(OC)cc12, the Activity is reported as “inactive”.

Each compound was assayed against T4, Melatonin receptor type 1A (assay: Agonist activity at human MT1 receptor expressed in CHO cells after 1 hr by [35S]GTPgammaS binding assay).
Format: functional, cell-based
CCC(=O)NC[C@@H](CO)c1cccc2ccc(OC)cc12 was tested, and the EC50 was 389 nM.
Compound COc1ccc2cccc(C(CO)CNC(=O)C(F)F)c2c1 (stereo not drawn) has an EC50 of 10.2 nM.
Compound CCC(=O)NCC(CO)c1cccc2ccc(OC)cc12 (racemic) has an EC50 of 49 nM.
Work on COc1ccc2cccc(C(CO)CNC(C)=O)c2c1 (stereo not drawn) yielded an EC50 of 72.4 nM.
COc1ccc2cccc([C@H](CO)CNC(=O)CF)c2c1 was tested, and the EC50 was 1050 nM.
For COc1ccc2cccc(C(CO)CNC(=O)CF)c2c1 (racemic), the EC50 was 25.1 nM.
